Source: ChEMBL document CHEMBL1129106, “The development of non-steroidal dual inhibitors of both human 5-reductase isozymes” (Bioorg Med Chem Lett, 1996)

Legend:
[1] = Half-life in rat plasma; type: ADME, organism-based
[2] = Volume of distribution in dog; type: ADME, organism-based, Canis lupus familiaris; conditions: in vivo
[3] = Volume of distribution in rat.; type: ADME, organism-based; conditions: in vivo
[4] = Plasma clearance in dog; type: ADME, organism-based, Canis lupus familiaris
[5] = Plasma clearance in rat.; type: ADME, organism-based
[6] = Oral bioavailability in rat; type: ADME, organism-based; conditions: in vivo
[7] = Oral bioavailability in dog; type: ADME, organism-based, Canis lupus familiaris; conditions: in vivo
[8] = biological target: T1, 3-oxo-5-alpha-steroid 4-dehydrogenase 2 (Homo sapiens) (UniProt P31213); experiment: Compound was tested in vitro for its inhibitory activity against human 5Alpha-R2 expressed as potency.
T1 sequence (whole entry): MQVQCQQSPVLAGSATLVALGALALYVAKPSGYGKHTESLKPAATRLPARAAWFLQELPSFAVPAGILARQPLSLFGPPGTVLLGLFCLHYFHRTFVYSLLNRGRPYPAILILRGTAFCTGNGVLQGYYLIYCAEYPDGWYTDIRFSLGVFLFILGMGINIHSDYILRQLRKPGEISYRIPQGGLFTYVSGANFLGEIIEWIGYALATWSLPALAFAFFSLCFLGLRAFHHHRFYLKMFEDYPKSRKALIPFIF

[9] = biological target: Steroid 5-alpha-reductase (Rattus norvegicus) (UniProt P24008+P31214); experiment: Compound was tested in vitro for its inhibitory activity against rat 5Alpha-R expressed as potency; type: protein assay
Chain of Steroid 5-alpha-reductase (Rattus norvegicus) (P24008 whole entry, looked up): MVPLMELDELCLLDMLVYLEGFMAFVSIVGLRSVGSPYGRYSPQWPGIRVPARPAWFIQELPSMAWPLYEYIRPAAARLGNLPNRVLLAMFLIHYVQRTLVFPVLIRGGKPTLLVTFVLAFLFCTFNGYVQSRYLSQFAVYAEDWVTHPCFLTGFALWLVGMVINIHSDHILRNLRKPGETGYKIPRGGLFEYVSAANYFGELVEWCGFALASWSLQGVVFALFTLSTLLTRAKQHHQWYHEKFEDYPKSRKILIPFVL
Chain of Steroid 5-alpha-reductase (Rattus norvegicus) (P31214 whole entry, looked up): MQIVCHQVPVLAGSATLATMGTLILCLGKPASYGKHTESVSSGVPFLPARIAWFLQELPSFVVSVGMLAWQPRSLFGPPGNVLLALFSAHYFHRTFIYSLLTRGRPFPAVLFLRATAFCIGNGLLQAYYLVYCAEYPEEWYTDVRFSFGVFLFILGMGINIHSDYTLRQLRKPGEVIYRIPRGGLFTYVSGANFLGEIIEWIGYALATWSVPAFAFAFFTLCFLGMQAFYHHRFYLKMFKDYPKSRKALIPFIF

[10] = biological target: T2, 3-oxo-5-alpha-steroid 4-dehydrogenase 1 (Homo sapiens) (UniProt P18405); experiment: Compound was tested in vitro for its inhibitory activity against human 5Alpha-R1 expressed as potency.
T2 sequence (whole entry): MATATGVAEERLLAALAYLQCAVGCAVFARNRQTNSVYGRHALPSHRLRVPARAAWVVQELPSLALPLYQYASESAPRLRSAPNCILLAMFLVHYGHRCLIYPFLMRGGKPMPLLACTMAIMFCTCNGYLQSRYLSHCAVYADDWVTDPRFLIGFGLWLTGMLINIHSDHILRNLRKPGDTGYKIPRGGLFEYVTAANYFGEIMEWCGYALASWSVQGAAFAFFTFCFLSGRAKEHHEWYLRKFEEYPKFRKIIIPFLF

In the case of `CC(C)Cc1ccc([C@H](C)Oc2ccc(C(=O)c3cn(CCCC(=O)O)c4ccccc34)cc2)cc1`, the half-life [1] is reported as 3.7 h, the Vd [2] is reported as 0.9 L/kg and the Vd [3] is reported as 3.6 L/kg. The clearance [4] was 2.4 mL/min/kg, the clearance [5] was 11 mL/min/kg and the bioavailability [6] was 56%. For the same compound, the bioavailability [7] was 86%, the Potency [8] was 4 nM and the Potency [9] was 1 nM. For the same compound, the Potency [10] was 40 nM.

`O=C(O)CCCn1cc(C(=O)c2ccc3c(c2)OC(c2ccccc2)(c2ccccc2)O3)c2ccccc21` gave a Potency [8] of 34 nM, a Potency [9] of 3 nM and a Potency [10] of 23 nM.

Compound `CC(C)Cc1ccc(C(C)Oc2ccc(C(=O)N3CC(CCCC(=O)O)c4ccccc43)cc2)cc1` (stereo unspecified) has a Potency [8] of 481 nM, a Potency [9] of 24 nM and a Potency [10] of 113 nM.

With `CCCc1ccc(OC(C)c2ccc(C(=O)c3cn(CCCC(=O)O)c4ccccc34)cc2)cc1` (stereo unspecified) the Potency [8] was 10 nM, the Potency [9] was 5 nM and the Potency [10] was 8 nM.

`CC(C)Cc1ccc([C@@H](C)Oc2ccc(C(=O)c3cn(CCCC(=O)O)c4ccccc34)cc2)cc1` showed a Potency [8] of 69 nM, a Potency [9] of 30 nM and a Potency [10] of 574 nM.

In the case of `CC(C)Cc1ccc([C@]2(C)Oc3ccc(C(=O)c4cn(CCCC(=O)O)c5ccccc45)cc3O2)cc1`, the Potency [8] is reported as 23 nM, the Potency [9] is reported as 9 nM and the Potency [10] is reported as 25 nM.

`Cc1c(O[C@@H](C)c2ccc(CC(C)C)cc2)ccc(C(=O)Nc2ccccc2OCCCC(=O)O)c1C` gave a Potency [8] of 256 nM.
